Reference: patent US7261901B2, “Vaccine and compositions for the prevention and treatment of neisserial infections” (University of Iowa Research Foundation, priority 2001, dated 2007)

Assays:
[1] = test system: gonococci; settings: 1.0, 0.1, or 0.01 percent alcohol, absence of cervical cells (data not shown)
Description: Consequently, it was determined if exogenously added PLD substrates could compete with cervical cell constituents for NgPLD activity and in doing so interfere with the role of NgPLD in gonococcal invasion.

[2] = test system: Ectocervical Cells; test: Association and invasion (gentimicin-resistance) assays, primary ectocervical (pex) cells; type: cell-based, human
Description: (§1) 8. N. gonorrhoeae Attachment to and Invasion of Primary, Human, Cervical Cells. Primary cervical cell monolayers were infected with wild-type or PLD mutant gonococci as outlined above. Variable concentrations of Streptomyces spp. PLD (SsPLD) (Sigma), PMA, or 4-α phorbol were included in association (adherence and invasion) or invasion assays, as noted. Cervical cells were preincubated (30 minutes, 37° C.) with 200 nM PMA or 4-α phorbol before the addition of gonococci. 10 units ml^−1 SsPLD was added simultaneously with gonococci. Alternatively, where noted, cervical cell monolayers were pre-incubated (30 minutes, 37° C.) with pervanadate, which was made by mixing 100 μM ortho-sodium vanadate in 3 mM hydrogen peroxide. In separate assays, infection supernatants were collected from wild-type or PLD mutant-infected cervical cell monolayers, gonococci were removed by filtration through a 0.22 μm syringe filter (i.e., wild-type or mutant primed supernatants) and were added to association and/or invasion assays, as noted. The ability of gonococci to adhere to and/or invade pex and pen cells was quantitatively determined using standard gentimicin-resistance assays, performed as described previously (Edwards et al., 2000), and in which chemical or protein additives were included or excluded from the invasion assay as described above. The total association (i.e., adherence and invasion) of gonococci with pex and pen cells was quantitated by the omission of gentimicin from the above described invasion assay. Percent invasion of N. gonorrhoeae 1291 or 1291ΔPLDin the presence or absence of experimental additives was determined as a function of the original inoculum and the number of colonies formed with subsequent plating of the cellular lysate. A Kruskal-Wallis non-parametric analysis of variance was used to determine the statistical significance of the association and invasion assays described above.
N. gonorrhoeae Attachment to and Invasion of Primary, Human, Cervical Cells. Primary cervical cell monolayers were infected with wild-type or PLD mutant gonococci as outlined above. Variable concentrations of PtC (Sigma), ethanol, 2-butanol, or Streptomyces spp. PLD (SsPLD) (Sigma) were included in association (adherence and invasion) or invasion assays, as noted. PtC, ethanol, 2-butanol, or 10 units ml^−1 SsPLD were added simultaneously with gonococci. In separate assays, infection supernatants were collected from wild-type or PLD mutant-infected cervical cell monolayers, gonococci were removed by filtration through a 0.22 μm syringe filter (to yield primed wild-type or mutant supernatants), which were then added to association and/or invasion assays, as noted. The ability of gonococci to adhere to and/or invade pex and pen cells was quantitatively determined using standard gentimicin-resistance assays, performed as described previously (Edwards et al., 2000) and in which chemical or protein additives were included or excluded from the invasion assay as described above. The total association (i.e., adherence and invasion) of gonococci with pex and pen cells was quantitated by the omission of gentimicin from the above described invasion assay. Percent invasion of N. gonorrhoeae 1291 or 1291ΔPLD in the presence or absence of experimental additives was determined as a function of the original inoculum and the number of colonies formed with subsequent plating of the cellular lysate. Inhibition of gonococcal attachment and/or invasion by exogenous PtC, ethanol, or 2-butanol was determined as a normalized function of the ability of gonococci to attach to and/or invade primary cervical cells in the absence of the competimer inhibitor. A Kruskal-Wallis non-parametric analysis of variance was used to determine the statistical significance of the association and invasion assays described above.

[3] = test system: Endocervical Cells; test: Association and invasion (gentimicin-resistance) assays, primary endocervical (pen) cells; type: cell-based, human; settings: 1291 + 100 nM DPG
Description: as §1, with “Alternatively, where noted, cervical cell monolayers were pre-incubated (30 minutes, 37° C.) with pervanadate, which was made by mixing 100 μM ortho-sodium vanadate in 3 mM hydrogen peroxide. In separate assays, infection supernatants were collected from wild-type or PLD mutant-infected cervical cell monolayers, gonococci were removed by filtration through a 0.22 μm syringe filter (i.e., wild-type or mutant primed supernatants) and were added to association and/or invasion assays, as noted.” left out, “A Kruskal-Wallis non-parametric analysis of variance was used to determine the statistical significance of the association and invasion assays described above.” left out

[4] = test system: primary cervical cells; test: Association and invasion assays, primary cervical cells (cell type not specified); type: cell-based, human; settings: for intracellular survival of PLD mutant gonococci: 100 μM pervanadate or 200 nM PMA
Description: The anti-PLD antibody was screened for specificity to PLD using assays well-known to the art.
as §1

[5] = test system: PLD; test: PLD activity (Amplex Red Phospholipase D Assay Kit) in gonococci, infected cervical cell lysates, fractions and supernatants; type: biochemical, N. gonorrhoeae
Description: (§2) 4. Determination of PLD Activity. PLD activity was accessed using the Amplex™ Red Phospholipase D Assay Kit (Molecular Probes, Eugene Oreg.). Wild-type and PLD mutant gonococci were suspended in PLD assay buffer to a final concentration of 10^7 bacteria ml^−1, and activity was determined according to the manufacturer's protocol. Assessment of PLD activity at acidic pH was determined in a two-step assay according to the manufacturer's protocol. For the first step, 10^8 gonococci were suspended in PBS with the pH adjusted to 3.0, 4.5, or 6.0. Gonococcal suspensions were diluted 10-fold in PLD assay buffer for the second step of the reaction. Cervical cell fractions were prepared as outlined below and PLD activity was assessed at neutral pH according to the manufacturer's protocol.
5. Fractionation of Primary Cervical Cells. Uninfected (control) and infected cervical cell monolayers were lysed in buffer A (50 mM tris, pH 7.5; 10 mM NaCl, 1 mM KCl; 2 mM MgCl2, 1 mM PMSF) by scraping cervical cells from tissue culture dishes placed on ice. The cell lysate was sonicated (two bursts of 20 seconds each). Cell debris and the nuclear fraction was removed by centrifugation (750×g, 10 minutes), and the supernatant from this spin was then subjected to filtration through a low-protein binding 0.22 μm syringe filter to ensure removal of gonococci. Alternatively, gonococci were removed by immunoprecipitation (as described by Wen et al., 2000) using the monoclonal antibody, 2C3, which recognizes the H.8 outer membrane protein of the pathogenic Neisseria. Sucrose was added to the resulting gonococcus-depleted supernatant (S1) to a final concentration of 300 mM. Ultracentrifugation (150,000×g, 90 minutes) was then performed to produce the plasma membrane-(pellet) and cytosol (supernatant 2, S2)-enriched fractions. The membrane-enriched fraction was resuspended in PLD assay buffer (50 mM Tris, 5 mM CaCl2, pH 8.0). S2 was concentrated by filtration through Centricon YM-30 centrifugal filter units (Millipore) after which cytosolic constituents were recovered in PLD assay buffer. Where indicated, prior to infection studies primary pex and pen cell monolayers were treated with 300 nM wortmannin (Sigma) (2 hours, 37° C.) or 1 μM cytochalasin D (Sigma) (30 minutes, 37° C.) to inhibit macropinocytosis of gonococci. Wortmannin and cytochalasin D were maintained in cervical cell cultures during the course of infection.
as §2, with “Determination of” for “4. Determination of”, “Assessment of gonococcal PLD activity” for “Assessment of PLD activity”
Fractionation of Primary Cervical Cells. Uninfected (control) and infected cervical cell monolayers were lysed in buffer A (50 mM tris, pH 7.5; 10 mM NaCl, 1 mM KCl; 2 mM MgCl2, 1 mM PMSF) by scraping cervical cells from tissue culture dishes placed on ice. The cell lysate was sonicated (two bursts of 20 seconds each). […] Sucrose was added to the resulting gonococcus-depleted supernatant (S1) to a final concentration of 300 mM. Ultracentrifugation (150,000×g, 90 minutes) was then performed to produce the plasma membrane-(pellet) and cytosol (supernatant 2, S2)-enriched fractions. The membrane-enriched fraction was resuspended in PLD assay buffer (50 mM Tris, 5 mM CaCl2, pH 8.0). […]

[6] = test system: CR3; test: CR3 surface expression on primary cervical cells (ELISA with H5A4); type: cell-based, human; settings: for CR3 recruitment to the cervical cell surface: PLD mutant infected cells, 100 μM pervanadate or 200 nM PMA; for CR3 surface level expression: uninfected cervical cells
Description: As described hereinbelow, primary cervical cells were seeded in 96-well microtiter plates to comparatively quantitate surface level expression of CR3. In the procedure, cells were (i) uninfected; (ii) challenged with wild-type gonococci; (iii) challenged with PLD-mutant gonococci; and/or (iv) challenged with filtered, primed (see infra) wild-type or PLD-mutant gonococcal supernatants. After removal of the infection supernatant, cell monolayers were rinsed, fixed and subsequently labeled with an antibody (anti-CD11b antibody H5A4; Hildreth and August, 1985) specific for the CR3 I-domain subunit followed by an HRP antibody-conjugate (commercially available from Kirkegaard & Perry Laboratories, Gaithersburg, Md.) using standard ELISA protocols. Absorbance of the o-phenylenediamine dihydrochloride peroxidase substrate was determined spectrophotometrically at 490 nm (FIG. 15).
7. Determination of CR3 Surface Expression on Primary Cervical Cells. Pex and pen cells were passed to 96-well microtiter plates and allowed to grow to confluence. Cervical cells were then challenged with wild-type or PLD mutant gonococci after which the infection medium was removed and cells were rinsed thrice with PBS. Cells were fixed with 2% paraformaldehyde. Prior to immuno-analysis of CR3 surface level expression, cells were again rinsed with PBS. Immunoassays were then performed according to standard ELISA protocols using the H5A4 anti-CD11b (i.e., CR3) primary and peroxidase-conjugated secondary antibodies. Absorbance of the o-phenylenediamine dihydrochloride peroxidase substrate was determined spectrophotometrically at 490 nm. Primary antibody was omitted from one well, and the secondary antibody was omitted from a second well, which served as a control for endogenous peroxidase activity. Where indicated 200 nM phorbol myristate (PMA), 200 nM 4-α phorbol, 100 μM pervanadate, 3 mM hydrogen peroxide, or gonococci-depleted supernatants collected from wild-type or PLD mutant infection studies were included in the infection studies as outlined below.
Determination of CR3 Surface Expression on Primary Cervical Cells. Pex and pen cells were passed to 96-well microtiter plates and allowed to grow to confluence. Cervical cells were then challenged with wild-type or PLD mutant gonococci after which the infection medium was removed and cells were rinsed thrice with PBS. Cells were fixed with 2% paraformaldehyde. Prior to immuno-analysis of CR3 surface level expression, cells were again rinsed with PBS. Immunoassays were then performed according to standard ELISA protocols using the H5A4 anti-CD11b (i.e., CR3) primary and peroxidase-conjugated secondary antibodies. Absorbance of the o-phenylenediamine dihydrochloride peroxidase substrate was determined spectrophotometrically at 495 nm. […]

[7] = 1291 WT, alcohol competimer 0.01 %
[8] = 1291 WT, alcohol competimer 0.1 %
[9] = 1291 WT, alcohol competimer 1.0 %
[10] = Ectocervical Cells, 1291 + 100 nM DPG

CCC(C)O (stereo not drawn) [2-Butanol, 2-butanol]
survival of gonococci [1]: no significant difference in survival | Invasion (%) [2, 7]: 2.8661 (0.53) % | Invasion (%) [2, 8]: 2.7087 (0.47) % | Invasion (%) [2, 9]: 2.6869 (0.47) % | Invasion (%) ([2]; 1291ΔPLD, alcohol competimer 0.01 %): 0.2819 (0.02) % | Invasion (%) ([2]; 1291ΔPLD, alcohol competimer 0.1 %): 0.3172 (0.03) % | Invasion (%) ([2]; 1291ΔPLD, alcohol competimer 1.0 %): 0.2960 (0.05) %

O=C(O)C(COP(=O)(O)O)OP(=O)(O)O (stereo not drawn) [DPG, 2,3-diphosphoglycerate]
Association, Mean [2, 10]: 15.31 | Invasion, Mean [2, 10]: 0.36 | Association, Mean [3]: 6.97 | Invasion, Mean [3]: 0.21 | effect on PLD activity, association and invasion of cervical cells by gonococci [4]: inhibits gonococcal association and invasion

CCO [Ethanol, ethanol]
survival of gonococci [1]: no significant difference in survival | Inhibition (%) [2, 7]: 74.9582 (0.87) % | Invasion (%) [2, 7]: 0.6957 (0.02) % | Inhibition (%) [2, 8]: 80.9243 (1.41) % | Invasion (%) [2, 8]: 0.5288 (0.01) % | Invasion (%) [2, 9]: 0.2564 (0.01) % | Inhibition (%) ([2]; 1291 WT, alcohol competimer 1.0 %, variance in parentheses): 90.7346 (0.92) %

OO [H2O2, hydrogen peroxide]
PLD activity (Table 3, untitled) ([5]; No cervical cells): 0.961 | Mean PLD activity, No Cells ([5]; gonococci alone and assay control (Table 7B, C)): 0.885 | PLD activity, Assay Controls (Table 4C) ([5]; positive control): 0.781 | PLD activity, Assay Controls, mean ([5]; positive control (Table 8A)): 1.557 | effect on gonococcal association, invasion or CR3 cell surface recruitment ([4]; negative controls: 200 nM 4-α phorbol, 3 mM hydrogen peroxide): No effect was observed

CCCCCCCCCCCCCC(=O)O[C@@H]1[C@@H](C)[C@@]2(O)[C@@H](C=C(CO)C[C@]3(O)C(=O)C(C)=C[C@@H]23)[C@@H]2C(C)(C)[C@]12OC(C)=O [PMA, phorbol myristate]
CR3 recruitment to the cervical cell surface [6]: rescued CR3 recruitment | CR3 surface level expression [6]: increased CR3 surface level expression | intracellular survival of PLD mutant gonococci [4]: partially restored intracellular survival

pervanadate
CR3 recruitment to the cervical cell surface [6]: rescues CR3 recruitment | CR3 surface level expression [6]: does not stimulate CR3 surface recruitment | intracellular survival of PLD mutant gonococci [4]: not sufficient to allow the intracellular survival
